Source: US10047098B2, “C5-C6-oxacyclic fused iminopyrimidinone compounds as bace inhibitors, compositions, and their use” (Merck Sharp & Dohme Corp., priority 2014, dated 2018)

Legend:
[1] = target: Recombinant human soluble BACE1 catalytic domain (Homo sapiens (Human), UniProt P56817); experiment: BACE1 HTRF FRET Assay; format: biochemical; conditions: Ki calculated from IC50 using the Cheng-Prusoff equation; QSY7-APPswe-Eu substrate, pH 5.0; read-out: BACE-1 Ki
Method in brief: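 Purified BACE1 catalytic domain (3 nM as added) is preincubated with inhibitor for 30 min at 30 °C in 20 mM Na-acetate pH 5.0, 10% glycerol, 0.1% Brij-35, 7.5% DMSO. QSY7-APP^swe-Eu substrate (200 nM final) is then cleaved for 1.5 h at 30 °C and read as time-resolved 620 nm fluorescence. IC50s come from nonlinear regression, and Ki from Cheng-Prusoff using substrate Km 8 μM.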

[2] = target: purified human autoBACE-2 (Homo sapiens (Human), UniProt Q9Y5Z0); experiment: BACE-2 Assay (BACE-HTRF assay); format: biochemical; conditions: Ki calculated from IC50 using the Cheng-Prusoff equation; QSY7-EISEVNLDAEFC-Eu-amide substrate, pH 5.0
purified human autoBACE-2, sequence (Q9Y5Z0 63-473 limits assumed): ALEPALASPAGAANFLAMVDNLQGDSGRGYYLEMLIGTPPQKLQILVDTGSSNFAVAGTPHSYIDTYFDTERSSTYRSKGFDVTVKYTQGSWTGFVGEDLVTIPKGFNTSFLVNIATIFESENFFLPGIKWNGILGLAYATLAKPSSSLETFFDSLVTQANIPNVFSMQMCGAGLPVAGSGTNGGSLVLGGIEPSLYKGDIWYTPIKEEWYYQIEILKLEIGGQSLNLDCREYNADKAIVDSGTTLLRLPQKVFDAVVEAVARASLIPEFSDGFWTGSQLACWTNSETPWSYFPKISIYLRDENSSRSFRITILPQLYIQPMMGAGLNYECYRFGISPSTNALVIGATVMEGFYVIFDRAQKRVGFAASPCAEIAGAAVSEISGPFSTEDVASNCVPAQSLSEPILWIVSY
Method in brief: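 Endpoint proteolysis of a QSY7/europium FRET peptide by purified human autoBACE-2, 5% DMSO final, read by time-resolved fluorescence at 620 nm after 320 nm excitation.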

Recombinant human soluble BACE1 catalytic domain, sequence (P56817 75-416): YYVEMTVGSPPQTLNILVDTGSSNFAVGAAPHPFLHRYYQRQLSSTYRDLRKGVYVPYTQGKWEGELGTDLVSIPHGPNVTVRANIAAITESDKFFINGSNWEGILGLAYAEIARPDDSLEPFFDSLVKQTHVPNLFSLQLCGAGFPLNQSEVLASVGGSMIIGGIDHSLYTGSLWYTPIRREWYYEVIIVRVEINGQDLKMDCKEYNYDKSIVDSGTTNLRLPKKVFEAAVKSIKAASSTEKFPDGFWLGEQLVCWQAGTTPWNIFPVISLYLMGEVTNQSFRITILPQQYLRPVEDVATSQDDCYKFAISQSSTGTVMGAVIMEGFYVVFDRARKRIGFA

Compound | Ki [1] [nM] | Ki [2] [nM]
C[C@H]1C[C@H]2C(=O)N(C)C(=N)N[C@@]2(c2cc(Oc3cc(F)ccc3F)ccc2F)CO1 [Example 82, (4aR,6S,8aS)-8a-(5-(2,5-difluorophenoxy)-2-fluorophenyl)-2-imino-3,6-dimethylhexahydro-1H-pyrano[3,4-d]pyrimidin-4(4aH)-one] | 45.7 | 23.5
CN1C(=N)N[C@@]2(c3cc(Br)ccc3F)CO[C@@H](c3ccc(F)cc3)C[C@H]2C1=O [Example 83, (4aR,6R,8aS)-8a-(5-bromo-2-fluorophenyl)-6-(4-fluorophenyl)-2-imino-3-methylhexahydro-1H-pyrano[3,4-d]pyrimidin-4(4aH)-one] | 60.5 | 24.2
CN1C(=N)N[C@@]2(c3cc(O)ccc3F)CO[C@@H](c3ccc(F)cc3)C[C@H]2C1=O [Example 84, (4aR,6R,8aS)-8a-(2-fluoro-5-hydroxyphenyl)-6-(4-fluorophenyl)-2-imino-3-methylhexahydro-1H-pyrano[3,4-d]pyrimidin-4(4aH)-one] | 70 | 17.2
CN1C(=N)N[C@@]2(c3cc(OCC4CC4)ccc3F)CO[C@@H](c3ccc(F)cc3)C[C@H]2C1=O [Example 85, (4aR,6R,8aS)-8a-(5-(cyclopropylmethoxy)-2-fluorophenyl)-6-(4-fluorophenyl)-2-imino-3-methylhexahydro-1H-pyrano[3,4-d]pyrimidin-4(4aH)-one] | 3.2 | 0.76
CN1C(=N)N[C@@]2(c3cc(Br)ccc3F)COCC[C@H]2C1=O [Example 86, (4aR,8aS)-8a-(5-bromo-2-fluorophenyl)-2-imino-3-methylhexahydro-IH-pyrano[3,4-d]pyrimidin-4(4aH)-one] | 1200 | 298
CN1C(=N)N[C@@]2(c3cc(Oc4ncccc4F)ccc3F)COCC[C@H]2C1=O [Example 87, (4aR,8aS)-8a-(2-fluoro-5-((3-fluoropyridin-2-yl)oxy)phenyl)-2-imino-3-methylhexahydro-1H-pyrano[3,4-d]pyrimidin-4(4aH)-one] | 27 | 13.5
CN1C(=N)N[C@@]2(c3cc(OCC4CC4)ccc3F)COCC[C@H]2C1=O [Example 88, (4aR,8aS)-8a-(5-(cyclopropylmethoxy)-2-fluorophenyl)-2-imino-3-methylhexahydro-1H-pyrano[3,4-d]pyrimidin-4(4aH)-one] | 44 | 5.96
COC[C@H]1C[C@H]2C(=O)N(C)C(=N)N[C@@]2(c2cc(Br)ccc2F)CO1 [Example 89, (4aR,6R,8aS)-8a-(5-bromo-2-fluorophenyl)-2-imino-6-(methoxymethyl)-3-methylhexahydro-1H-pyrano[3,4-d]pyrimidin-4(4aH)-one] | 910 | 304
COC[C@H]1C[C@H]2C(=O)N(C)C(=N)N[C@@]2(c2cc(OCC3CC3)ccc2F)CO1 [Example 90, (4aR,6R,8aS)-8a-(5-(cyclopropylmethoxy)-2-fluorophenyl)-2-imino-6-(methoxymethyl)-3-methylhexahydro-1H-pyrano[3,4-d]pyrimidin-4(4aH)-one] | 21 | 8.84
COc1cc([C@]23CO[C@@H](C)C[C@H]2C(=O)N(C)C(=N)N3)c(F)cn1 [Example 91, (4aR,6S,8aS)-8a-(5-fluoro-2-methoxypyridin-4-yl)-2-imino-3,6-dimethylhexahydro-1H-pyrano[3,4-d]pyrimidin-4(4aH)-one] | 468 | 155
C[C@H]1C[C@H]2C(=O)N(C)C(=N)N[C@@]2(c2cc(OCC3CC3)ncc2F)CO1 [Example 92, (4aR,6S,8aS)-8a-(2-(cyclopropylmethoxy)-5-fluoropyridin-4-yl)-2-imino-3,6-dimethylhexahydro-1H-pyrano[3,4-d]pyrimidin-4(4aH)-one] | 11.1 | 2.19
C=CCCOc1cc([C@]23CO[C@@H](C)C[C@H]2C(=O)N(C)C(=N)N3)c(F)cn1 [Example 93, (4aR,6S,8aS)-8a-(2-(but-3-en-1-yloxy)-5-fluoropyridin-4-yl)-2-imino-3,6-dimethylhexahydro-1H-pyrano[3,4-d]pyrimidin-4(4aH)-one] | 16.1 | 4.46
C[C@H]1C[C@H]2C(=O)N(C)C(=N)N[C@@]2(c2cc(=O)n(CC3CC3)cc2F)CO1 [Example 94, (4aR,6S,8aS)-8a-(1-(cyclopropylmethyl)-5-fluoro-2-oxo-1,2-dihydropyridin-4-yl)-2-imino-3,6-dimethylhexahydro-1H-pyrano[3,4-d]pyrimidin-4(4aH)-one] | 4180 | 1590
C=CCCn1cc(F)c([C@]23CO[C@@H](C)C[C@H]2C(=O)N(C)C(=N)N3)cc1=O [Example 95, (4aR,6S,8aS)-8a-(1-(but-3-en-1-yl)-5-fluoro-2-oxo-1,2-dihydropyridin-4-yl)-2-imino-3,6-dimethylhexahydro-1H-pyrano[3,4-d]pyrimidin-4(4aH)-one] | 8400 | 1590
C[C@H]1C[C@H]2C(=O)N(C)C(=N)N[C@@]2(c2cc(Oc3ncccc3F)ncc2F)CO1 [Example 96] | 145 | 31.3
(4aR,6S,8aS)-8a-(5-((4-chloropyridin-3-yl)oxy)-2-fluorophenyl)-2-imino-3,6-dimethylhexahydro-1H-pyrano[3,4-d]pyrimidin-4(4aH)-one [Example 75] | 58.2 | 23.3
